Source: US8349885B2, “Indole and indazole derivatives having a cell-, tissue- and organ-preserving effect” (LG Life Sciences Ltd., priority 2008, dated 2013)

tested on: primary cultured hepatocytes; test: Cell-protecting effect against cold shock in primary cultured hepatocytes (WST-1); type: cell-based; details: Rattus norvegicus, Hepatocyte, 37° C. for 1 hour, 4° C. for 22 hours, then 37° C., cell viability by WST-1
Method: In order to reproduce a condition for preservation prior to organ transplantation, primary cultured hepatocytes were prepared according to Experimental Example 1 and treated with the compounds of the working examples at 9 different concentrations that had been prepared by 3-fold serial dilution method using a starting concentration of 25 μM. The mixture was cultured at 37° C. for 1 hour, stored at 4° C. for 22 hours, and then transferred into an incubator at 37° C. and cultured therein. Cell viability was measured by the optical density at 440 nm according to the WST-1 method (MK-400, Takeda), and IC50 (unit: μM) was obtained using prism software (see Table 1).

Compound | IC50 [nM]
Cc1cc(NCC2CCOCC2)c2[nH]c(-c3ccccc3)cc2c1 [Example 58, (5-methyl-2-phenyl-1H-indol-7-yl)-(tetrahydro-pyran-4-ylmethyl)-amine] | < 120
Cc1cc(NCC2CCCC2)c2[nH]c(-c3ccccn3)cc2c1 [Example 40, cyclopentylmethyl-(5-methyl-2-pyridin-2-yl-1H-indol-7-yl)-amine] | < 120
O=C(O)Cc1cc(NC2CCCC2)c2[nH]c(-c3ccccc3)cc2c1 [Example 75, (7-cyclopenthylamino-2-phenyl-1H-indol-5-yl)-acetic acid] | < 120
CC(=O)N1CCC(Nc2cc(C)cc3cc(-c4ccccc4)[nH]c23)CC1 [Example 51, 1-[4-(5-methyl-2-phenyl-1H-indol-7-ylamino)-piperidin-1-yl]-ethanone] | 260
OCCc1cc(NC2CCCC2)c2[nH]c(-c3ccccc3)cc2c1 [Example 76, 2-(7-cyclopenthylamino-2-phenyl-1H-indol-5-yl)-ethanol] | < 120
Cc1cc(NC2CCCC2)c2[nH]c(-c3nc(CO)cs3)cc2c1 [Example 30, [2-(7-cyclopentylamino-5-methyl-1H-indol-2-yl)-thiazole-4-yl]-methanol] | < 120
OC[C@@H]1CSC(c2cc3cccc(NC4CCOCC4)c3[nH]2)=N1 [Example 7, {(R)-2-[7-(tetrahydro-pyran-4-ylamino)-1H-indol-2-yl]-4,5-dihydro-thiazol-4-yl}-methanol] | < 400
c1ccc(-c2cc3cccc(NC4CCCC4)c3[nH]2)nc1 [Example 24, cyclopentyl-(2-pyridin-2-yl-1H-indol-7-yl)amine] | < 120
Cc1cc(NC2CCCC2)c2[nH]c(-c3nc(C(=O)O)cs3)cc2c1 [Example 29, 2-(7-cyclopentylamino-5-methyl-1H-indol-2-yl)-thiazole-4-carboxylic acid] | 1460
OC[C@@H]1CSC(c2cc3cccc(NC4CCCC4)c3[nH]2)=N1 [Example 5, [(R)-2-(7-cyclopentylamino-1H-indol-2-yl)-4,5-dihydro-1,3-thiazol-4-yl]-methanol] | < 120
Cc1cc(NC2CCCC2)c2[nH]c(-c3nnco3)cc2c1 [Example 32, cyclopentyl-(5-methyl-2-[1,3,4]oxadiazol-2-yl-1H-indol-7-yl)-amine] | < 120
CCOc1cc(NC2CCCC2)c2[nH]c(C3=N[C@H](CC(=O)O)CS3)cc2c1 [Example 17, [(R)-2-(7-cyclopentylamino-5-ethoxy-1H-indol-2-yl)-4,5-dihydro-thiazol-4-yl]-acetic acid] | < 120
Cc1cc(NC2CCCC2)c2[nH]c(C3CCCCC3)cc2c1 [Example 47, (2-cyclohexyl-5-methyl-1H-indol-7-yl)-cyclopentyl-amine] | < 120
Cc1cc(NC2CCC(=O)CC2)c2[nH]c(-c3ccccn3)cc2c1 [Example 38, 4-(5-methyl-2-pyridin-2-yl-1H-indol-7-ylamino)-cyclohexanone] | < 120
Cc1cc(NC2CCC(C(=O)NCCN3CCOCC3)CC2)c2[nH]c(-c3ccccc3)cc2c1 (centres unmarked) [Example 56, 4-(5-methyl-2-phenyl-1H-indol-7-ylamino)-cyclohexane carboxylic acid (2-morpholin-4-yl-ethyl)-amide] | 200
O=C(O)C[C@@H]1CSC(c2cc3cc(Br)cc(NC4CCCC4)c3[nH]2)=N1 [Example 16, [(R)-2-(5-bromo-7-cyclopentylamino-1H-indol-2-yl)-4,5-dihydro-thiazol-4-yl]-acetic acid] | 3560
CCOC(=O)CC[C@@H]1CSC(c2cc3cc(Cl)cc(NC4CCCC4)c3[nH]2)=N1 [Example 22, 3-[(R)-2-(5-chloro-7-cyclopentylamino-1H-indol-2-yl)-4,5-dihydro-thiazol-4-yl]-propionic acid ethyl ester] | 970
